Earlier results as cited in US20100267661A1, “BETA GLUCANS AND METHODS OF USE THEREOF” (ImmuDyne, Inc., priority 2009, published 2010).

Conditions: rats

## (1,3)-β-D-glucan [particulate yeast (1,3)-β-D-glucan]
  Adverse or toxic effects: no adverse or toxic effects
